According to PMC8365597, “Structural Insights into Notum Covalent Inhibition” (Journal of Medicinal Chemistry, 2021):
Positions count from the first letter of the chain named. One block for each compound: values may come before it.

Assays:
[1] = molecular target: T1, Notum (Homo sapiens, UniProt Q6P988, C330S); experiment: Notum OPTS activity assay (cell-free biochemical)
T1 construct: comprising amino acids S81–T451 with a C330S mutation; inferred from HisTrap purification and imidazole elution; made in house
T1 sequence (Q6P988 81-451 C330S): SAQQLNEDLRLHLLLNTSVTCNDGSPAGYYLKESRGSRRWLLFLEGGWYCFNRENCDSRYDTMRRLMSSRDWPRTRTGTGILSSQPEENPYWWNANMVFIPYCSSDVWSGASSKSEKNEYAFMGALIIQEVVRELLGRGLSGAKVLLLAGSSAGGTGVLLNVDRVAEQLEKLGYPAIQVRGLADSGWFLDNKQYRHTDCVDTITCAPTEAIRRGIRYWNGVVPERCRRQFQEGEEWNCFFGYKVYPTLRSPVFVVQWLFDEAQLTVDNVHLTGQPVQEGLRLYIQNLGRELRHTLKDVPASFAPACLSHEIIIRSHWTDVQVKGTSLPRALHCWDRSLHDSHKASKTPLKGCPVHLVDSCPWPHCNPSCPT
From the text: Notum is a druggable target for Wnt signaling modulation.[23] We have previously determined a number of structures of Notum inhibitor complexes.[21],[22],[24],[25],[27],[28] All of these inhibitors bind noncovalently at the Notum enzyme catalytic pocket, where the natural substrate PAM binds. For searching covalent inhibitors, we used this noncovalent inhibitor binding information to limit compound docking into the enzyme active site. A virtual library of approximately 1.5 million compounds (ChemDiv) was filtered to generate 534,804 candidates for docking with a Notum structure (PDB code 6T2K) by Schrödinger Glide SP[37],[38] (Experimental Section). Resulting 1330 compounds with score −9 or better were subject to manual inspection and availability check. Finally, 952 compounds were purchased and experimentally screened using a cell-free trisodium 8-octanoyloxypyrene-1,3,6-trisulfonate (OPTS) biochemical assay.[22] […] The soaked crystals were harvested, and diffraction data were collected at the Diamond Light Source. The structures were determined by molecular replacement and refined with Refmac to screen for difference map peaks (Experimental Section). Chemical structures were then fitted into the difference maps with the aim of identifying covalent binders. Methyl 4-indolinyl-4-oxobutanoate (1) was identified as the only covalent binder to emerge from the screen (Figure 1). The 1 soaked crystal diffracted to 1.2 Å resolution with a P2_12_12_1 space group containing one enzyme-inhibitor complex in an asymmetric unit (for data collection and refinement statistics, see Supporting Information, Table S1). The overall structure maintained the characteristic apo Notum fold (Figure 1A), with a α/β hydrolase core domain (β1-8 strands and αB, C, and F helices) and a moveable lid domain (αA, D, and E helices). 1 is composed of an indole ring linked to an oxo-butyric acid methyl ester (Figure 1B). The methyl ester-hydrolyzed 1 (with PDB identifier RW8) is an excellent fit in the strong electron density that extends from the nucleophile residue S232 (Figure 1C). The electron density for the RW8 is of equally high quality to that of the surrounding Notum amino acids. […] The movable lid domain sits between the “open” (PDB code 4UYU) and “closed” (PDB code 4UZ1) conformations with obvious movements of the flexible β6_αD loop (Figure 1D). When superimposed with the natural substrate, PAM-bound, structure (PDB code 4UZQ), the RW8 overlaps with the PAM within the enzyme pocket (Figure 1E). The indole ring is located toward the bottom of the pocket, while the butyric acid head group is well-aligned with the PAM head (Figure 1E). Residues that form the base of the pocket (P287–I291) are positioned closer to the RW8 indole ring than in the PAM-bound structure. For example, P287 Cα has moved 1.7 Å toward the pocket center (Figure 1E) to optimize interactions with the RW8 indole ring, which extends less far into the pocket than PAM.
The Notum inhibitory potencies of these compounds were assessed by determining OPTS IC50 values, which can be used to compare the relative activities of covalent inhibitors under carefully regulated conditions.[43] […] When a phenyl ring is added to produce benzyl ester, 5, the IC50 is also slightly better than 1.
The OPTS activity assay has been described in previous reports.[24],[25] Briefly, the test compounds, the reporter substrate OPTS (Sigma), and the recombinant Notum protein were dispensed into 384-well plates (Greiner) using a Labcyte Echo 550 acoustic liquid handler and incubated 40 min in room temperature. The endpoint fluorescence was measured on a PheraSTAR FSX microplate reader with an excitation wavelength of 485 nm and an emission wavelength of 520 nm. The compound IC50 values were calculated from curves using a 4PL fit.

[2] = molecular target: T2, Notum (glycosylated) (Homo sapiens, UniProt Q6P988, C330S); experiment: Thermal shift assay (differential scanning fluorimetry); type: binding; settings: for ΔTm at 1000 µM: compound 1 mM, read-out: max ΔTm; for ΔTm: compound ∼30 μM (31 μM in Figure 3)
T2 construct: comprising amino acids S81–T451 with a C330S mutation; inferred from HisTrap purification and imidazole elution; made in house
T2 sequence (Q6P988 81-451 C330S): T1 sequence (Q6P988 81-451 C330S)
Experimental: To further characterize Notum 1 binding, especially regarding the importance of the methyl ester warhead of 1, we used a thermal shift assay (also known as differential scanning fluorimetry) to compare the binding properties of 1 with its methyl-less acid form, 4-indolinyl-4-oxobutanoic acid (2). The thermal shift assay is a reliable label-free strategy to detect small molecule–protein binding by measuring protein melting temperature (Tm) changes.[39]−[41] A ΔTm of 2 °C or more indicates a small molecule binding to the target protein.[42] Notum was incubated with each compound in the presence of a fluorescent indicator, […], and the melting curves were recorded. 1 and 2, despite only differing by a single methyl group, yield highly different Notum melting curves (Figure 3). […] To establish the dose-dependent thermal shift responses, we performed a twofold serial dilution of the compounds.
Thermal shift assays were carried out in a semiskirted 96-well PCR plate (4-Titude). Each well contains 3 μg of glycosylated Notum protein, 3× SYPRO Orange dye (Thermo Fisher Scientific), and compounds at various concentrations and adjusted to a final volume of 50 μL with assay buffer (10 mM Hepes, pH7.4, 150 mM NaCl, and 2% DMSO). The samples were heated in an Mx3005p qPCR machine (Stratagene, Agilent Technologies) from room temperature at a rate of 1 °C/min for 74 cycles. Fluorescence changes were monitored with excitation and emission wavelengths at 492 and 610 nm, respectively.

[3] = molecular target: T3, Notum (deglycosylated) (Homo sapiens, UniProt Q6P988, C330S); experiment: ESI-QTOF intact protein mass spectrometry detection of covalent binding; settings: 10 mM Hepes pH 7.4, 150 mM NaCl, room temperature, 1 h
T3 construct: comprising amino acids S81–T451 with a C330S mutation; inferred from HisTrap purification and imidazole elution; made in house
T3 sequence (Q6P988 81-451 C330S): T1 sequence (Q6P988 81-451 C330S)
Experimental: (§1) However, the crystals were grown and soaked under low pH (pH 4.2) and high salt (1.5 M ammonium sulphate) conditions. To measure covalent bonding and stability under near physiological conditions, we incubated Notum (deglycosylated) protein with 1 in buffer containing 10 mM Hepes, pH 7.4, 150 mM NaCl at room temperature for 1 h. The mixture was then subjected to ultrahigh-performance liquid chromatography (uHPLC) reversed-phase chromatography separation, followed by electrospray ionization quadrupole time-of-flight (ESI-QTOF) mass spectrometry analysis. […] There are some other minor peaks that may reflect incomplete removal of glycans. […] The calculated MW of 1 is 233.27 Da, while its methyl ester-hydrolyzed form (RW8) is 201.22 Da. […] To establish whether the covalent link is dependent on the nucleophile serine residue, we further used the Notum S232A mutant as a control, observing a mass of 44103.32 Da (Figure 2C). The decrease of 15.79 Da compared to the wild type is consistent with the expected serine to alanine mutation.
(§2) Reversed-phase chromatography was performed in-line prior to mass spectrometry using an Agilent 1290 uHPLC system (Agilent Technologies inc. USA). […] Protein intact mass was determined using a 6530 ESI-QTOF mass spectrometer (Agilent Technologies Inc. USA). […]

[4] = molecular target: T1, Notum; experiment: Cell-based TCF/LEF reporter (luciferase) assay, HEK293 STF cells with exogenous Wnt3a and Notum; settings: HEK293 TCF/LEF luciferase reporter cell line
Experimental: Selected compounds were further investigated for inhibition of Notum activity in a Wnt/β-catenin signaling pathway TCF/LEF reporter (luciferase) HEK293 cell line with exogenous Wnt3a and Notum.[22],[25]
The cellular Wnt signaling functional assay has been described in previous reports.[24],[25] Briefly, the reporter cell plate containing stable HEK293 STF cells[53] (1 × 10^4 cells per well in 384-well microplates) carrying the Super Top Flash firefly luciferase reporter was prepared (overnight at 37 °C). Compounds and Notum protein were mixed for 10 min before the recombinant Wnt-3A was added and incubated for 1 h at room temperature. Then, the mixture from the compound plates was added to reporter cell plates and incubation overnight at 37 °C. For luciferase assay, steady-glo luciferase assay buffer (20 μL, Promega) was applied to the cell plates using the CyBio, the luminescence was measured on a PHERAstar FSXmicroplate reader with an excitation wavelength of 458 nm and an emission wavelength of 520 nm.

[5] = molecular target: T4, Notum S232A mutant (Homo sapiens, UniProt Q6P988, C330S/S232A); experiment: ESI-QTOF intact protein mass spectrometry detection of covalent binding, mutant control; settings: 10 mM Hepes pH 7.4, 150 mM NaCl, room temperature, 1 h
T4 construct: comprising amino acids S81–T451 with a C330S mutation; inferred from HisTrap purification and imidazole elution; made in house
T4 sequence (Q6P988 81-451 S232A/C330S): T1 sequence (Q6P988 81-451 C330S) with S152A
Experimental: as §1, §2

[6] = mean ± s.d. (n = 4), 40 min incubation at room temperature

Structure (SMILES): COC(=O)CCC(=O)N1CCc2ccccc21 [Compound 1, Methyl 4-indolinyl-4-oxobutanoate]
- IC50 [1, 6]: 93 ± 20 nM
- ΔTm at 8 µM ([2]; compound 8 μM, start of significant changes): 2 °C
- ΔTm at 1000 µM [2]: 10 °C
- ΔTm [2]: 5 °C
- mass increase of treated Notum compared to untreated Notum [3]: 201.25 Da
- EC50 [4]: 530 ± 47 nM
- mass change of treated Notum S232A mutant [5]: no mass change

Structure (SMILES): O=C(O)CCC(=O)N1CCc2ccccc21 [Compound 2, 4-indolinyl-4-oxobutanoic acid]
- IC50 [1, 6]: 3100 ± 920 nM
- ΔTm at 1000 µM [2]: 2.5 °C
- ΔTm [2]: 1 °C

Structure (SMILES): CCOC(=O)CCC(=O)N1CCc2ccccc21 [Compound 3]
- IC50 [1, 6]: 190 ± 45 nM
- EC50 [4]: 300 ± 60 nM

Structure (SMILES): CC(C)OC(=O)CCC(=O)N1CCc2ccccc21 [Compound 6]
- IC50 [1, 6]: 4300 ± 400 nM

Structure (SMILES): CC(C)(C)OC(=O)CCC(=O)N1CCc2ccccc21 [Compound 7]
- inhibition at 10 µM ([1]; @ 10 μM, read-out: Notum OPTS % inhibition (% I)): < 10%
- Notum OPTS IC50 [1, 6]: inactive ^b

Further compounds by falling IC50 [1, 6], results first:

- IC50 [1, 6]: 64 ± 14 nM
Structure (SMILES): O=C(CCC(=O)N1CCc2ccccc21)OCc1ccccc1 [Compound 5]

- IC50 [1, 6]: 12 ± 2.8 nM
Structure (SMILES): O=C(CCC(=O)N1CCc2ccccc21)OCC(F)F [Compound 4]
